Reference: PubChem BioAssay (NCI)
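Each compound was tested at five concentrations against cells in 96-well plates for 48 hours. GI50 = concentration required for 50% inhibition of growth. Definition used: TGI = concentration required for complete inhibition of growth.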

Assays:
Test in all cases: NCI anticancer screen, dose series, 48 h
HCT-15 colon = tested on: HCT-15 colon
OVCAR-3 ovarian = tested on: OVCAR-3 ovarian
UACC-62 melanoma = tested on: UACC-62 melanoma
SR leukemia = tested on: SR leukemia
SW-620 colon = tested on: SW-620 colon
MALME-3M melanoma = tested on: MALME-3M melanoma
OVCAR-5 ovarian = tested on: OVCAR-5 ovarian
EKVX NSCLC = tested on: EKVX NSCLC
NCI-H460 lung = tested on: NCI-H460 lung
MDA-MB-231 breast = tested on: MDA-MB-231 breast
HS 578T breast = tested on: HS 578T breast
DU-145 prostate = tested on: DU-145 prostate
CCRF-CEM leukemia = tested on: CCRF-CEM leukemia
LOX IMVI melanoma = tested on: LOX IMVI melanoma
SK-MEL-28 melanoma = tested on: SK-MEL-28 melanoma
SF-268 CNS = tested on: SF-268 CNS
RPMI-8226 leukemia = tested on: RPMI-8226 leukemia
CAKI-1 renal = tested on: CAKI-1 renal
HT29 colon = tested on: HT29 colon
HCC-2998 colon = tested on: HCC-2998 colon
UO-31 renal = tested on: UO-31 renal
OVCAR-4 ovarian = tested on: OVCAR-4 ovarian
NCI/ADR-RES ovarian = tested on: NCI/ADR-RES ovarian
MOLT-4 leukemia = tested on: MOLT-4 leukemia
786-0 renal = tested on: 786-0 renal
BT-549 breast = tested on: BT-549 breast
SK-MEL-2 melanoma = tested on: SK-MEL-2 melanoma
OVCAR-8 ovarian = tested on: OVCAR-8 ovarian
ACHN renal = tested on: ACHN renal
HL-60(TB) leukemia = tested on: HL-60(TB) leukemia
NCI-H522 lung = tested on: NCI-H522 lung
COLO 205 colon = tested on: COLO 205 colon
M14 melanoma = tested on: M14 melanoma
SNB-19 CNS = tested on: SNB-19 CNS
A498 renal = tested on: A498 renal
MCF7 breast = tested on: MCF7 breast
SK-MEL-5 melanoma = tested on: SK-MEL-5 melanoma
IGROV1 ovarian = tested on: IGROV1 ovarian
SNB-75 CNS = tested on: SNB-75 CNS
SN12C renal = tested on: SN12C renal
PC-3 prostate = tested on: PC-3 prostate
HOP-62 NSCLC = tested on: HOP-62 NSCLC
NCI-H226 lung = tested on: NCI-H226 lung
SK-OV-3 ovarian = tested on: SK-OV-3 ovarian
RXF 393 renal = tested on: RXF 393 renal
K-562 leukemia = tested on: K-562 leukemia
UACC-257 melanoma = tested on: UACC-257 melanoma
NCI-H23 lung = tested on: NCI-H23 lung
HCT-116 colon = tested on: HCT-116 colon
KM12 colon = tested on: KM12 colon
U251 CNS = tested on: U251 CNS
SF-539 CNS = tested on: SF-539 CNS
SF-295 CNS = tested on: SF-295 CNS
HOP-92 NSCLC = tested on: HOP-92 NSCLC
MDA-MB-435 = tested on: MDA-MB-435
MDA-MB-468 breast = tested on: MDA-MB-468 breast
TK-10 renal = tested on: TK-10 renal
T-47D breast = tested on: T-47D breast
A549 NSCLC = tested on: A549 NSCLC

CN(C)c1ccc(/C=C/c2n(Cc3ccc4ccccc4c3)c3ccccc3[n+]2Cc2ccc3ccccc3c2)cc1
GI50 (HCT-15 colon): 458 nM | TGI (HCT-15 colon): 1740 nM | GI50 (OVCAR-3 ovarian): 267 nM | TGI (OVCAR-3 ovarian): 1250 nM | GI50 (UACC-62 melanoma): 281 nM | TGI (UACC-62 melanoma): 1020 nM | GI50 (SR leukemia): 399 nM | TGI (SR leukemia): 2300 nM | GI50 (SW-620 colon): 319 nM | TGI (SW-620 colon): 1310 nM | GI50 (MALME-3M melanoma): 249 nM | TGI (MALME-3M melanoma): 740 nM | GI50 (OVCAR-5 ovarian): 360 nM | TGI (OVCAR-5 ovarian): 1410 nM | GI50 (EKVX NSCLC): 252 nM | TGI (EKVX NSCLC): 905 nM | GI50 (NCI-H460 lung): 260 nM | TGI (NCI-H460 lung): 1130 nM | GI50 (MDA-MB-231 breast): 292 nM | TGI (MDA-MB-231 breast): 998 nM | GI50 (HS 578T breast): 270 nM | TGI (HS 578T breast): 1420 nM | GI50 (DU-145 prostate): 354 nM | TGI (DU-145 prostate): 1420 nM | GI50 (CCRF-CEM leukemia): 315 nM | TGI (CCRF-CEM leukemia): 1410 nM | GI50 (LOX IMVI melanoma): 269 nM | TGI (LOX IMVI melanoma): 999 nM | GI50 (SK-MEL-28 melanoma): 491 nM | TGI (SK-MEL-28 melanoma): 1710 nM | GI50 (SF-268 CNS): 383 nM | TGI (SF-268 CNS): 1630 nM | GI50 (RPMI-8226 leukemia): 237 nM | TGI (RPMI-8226 leukemia): 1130 nM | GI50 (CAKI-1 renal): 331 nM | TGI (CAKI-1 renal): 1310 nM | GI50 (HT29 colon): 235 nM | TGI (HT29 colon): 1340 nM | GI50 (HCC-2998 colon): 325 nM | TGI (HCC-2998 colon): 1330 nM | GI50 (UO-31 renal): 530 nM | TGI (UO-31 renal): 1840 nM | GI50 (OVCAR-4 ovarian): 342 nM | TGI (OVCAR-4 ovarian): 1650 nM | GI50 (NCI/ADR-RES ovarian): 1320 nM | TGI (NCI/ADR-RES ovarian): 3460 nM | GI50 (MOLT-4 leukemia): 303 nM | TGI (MOLT-4 leukemia): 1660 nM | GI50 (786-0 renal): 287 nM | TGI (786-0 renal): 1440 nM | GI50 (BT-549 breast): 187 nM | TGI (BT-549 breast): 809 nM | GI50 (SK-MEL-2 melanoma): 271 nM | TGI (SK-MEL-2 melanoma): 770 nM | GI50 (OVCAR-8 ovarian): 312 nM | TGI (OVCAR-8 ovarian): 1350 nM | GI50 (ACHN renal): 326 nM | TGI (ACHN renal): 1210 nM | GI50 (HL-60(TB) leukemia): 228 nM | TGI (HL-60(TB) leukemia): 795 nM | GI50 (NCI-H522 lung): 246 nM | TGI (NCI-H522 lung): 737 nM | GI50 (COLO 205 colon): 211 nM | TGI (COLO 205 colon): 434 nM | GI50 (M14 melanoma): 369 nM | TGI (M14 melanoma): 1530 nM | GI50 (SNB-19 CNS): 296 nM | TGI (SNB-19 CNS): 1190 nM | GI50 (A498 renal): 269 nM | TGI (A498 renal): 1150 nM | GI50 (MCF7 breast): 281 nM | TGI (MCF7 breast): 1100 nM | GI50 (SK-MEL-5 melanoma): 181 nM | TGI (SK-MEL-5 melanoma): 346 nM | GI50 (IGROV1 ovarian): 382 nM | TGI (IGROV1 ovarian): 1530 nM | GI50 (SNB-75 CNS): 240 nM | TGI (SNB-75 CNS): 1140 nM | GI50 (SN12C renal): 286 nM | TGI (SN12C renal): 1070 nM | GI50 (PC-3 prostate): 250 nM | TGI (PC-3 prostate): 1250 nM | GI50 (HOP-62 NSCLC): 351 nM | TGI (HOP-62 NSCLC): 1410 nM | GI50 (NCI-H226 lung): 257 nM | TGI (NCI-H226 lung): 1010 nM | GI50 (SK-OV-3 ovarian): 280 nM | TGI (SK-OV-3 ovarian): 1090 nM | GI50 (RXF 393 renal): 231 nM | TGI (RXF 393 renal): 1020 nM | GI50 (K-562 leukemia): 228 nM | TGI (K-562 leukemia): > 22900 nM | GI50 (UACC-257 melanoma): 265 nM | TGI (UACC-257 melanoma): 919 nM | GI50 (NCI-H23 lung): 250 nM | TGI (NCI-H23 lung): 752 nM | GI50 (HCT-116 colon): 218 nM | TGI (HCT-116 colon): 1300 nM | GI50 (KM12 colon): 315 nM | TGI (KM12 colon): 1300 nM | GI50 (U251 CNS): 166 nM | TGI (U251 CNS): 1270 nM | GI50 (SF-539 CNS): 346 nM | TGI (SF-539 CNS): 1330 nM | GI50 (SF-295 CNS): 266 nM | TGI (SF-295 CNS): 996 nM | GI50 (HOP-92 NSCLC): 162 nM | TGI (HOP-92 NSCLC): 600 nM | GI50 (MDA-MB-435): 338 nM | TGI (MDA-MB-435): 1240 nM | GI50 (MDA-MB-468 breast): 165 nM | TGI (MDA-MB-468 breast): 731 nM | GI50 (TK-10 renal): 416 nM | TGI (TK-10 renal): 1680 nM | GI50 (T-47D breast): 294 nM | TGI (T-47D breast): 1500 nM | GI50 (A549 NSCLC): 317 nM | TGI (A549 NSCLC): 1520 nM
